{"source": "paper PMC5350174", "about": "“Orai and TRPC channel characterization in FcεRI‐mediated calcium signaling and mediator secretion in human mast cells” (Physiological Reports, 2017)", "format_in_all_cases": "cell-based", "key": {"TRPC6 [1]": {"target": "T1, TRPC6 (Homo sapiens, UniProt Q9Y210)", "T1 sequence (Q9Y210 1-931)": "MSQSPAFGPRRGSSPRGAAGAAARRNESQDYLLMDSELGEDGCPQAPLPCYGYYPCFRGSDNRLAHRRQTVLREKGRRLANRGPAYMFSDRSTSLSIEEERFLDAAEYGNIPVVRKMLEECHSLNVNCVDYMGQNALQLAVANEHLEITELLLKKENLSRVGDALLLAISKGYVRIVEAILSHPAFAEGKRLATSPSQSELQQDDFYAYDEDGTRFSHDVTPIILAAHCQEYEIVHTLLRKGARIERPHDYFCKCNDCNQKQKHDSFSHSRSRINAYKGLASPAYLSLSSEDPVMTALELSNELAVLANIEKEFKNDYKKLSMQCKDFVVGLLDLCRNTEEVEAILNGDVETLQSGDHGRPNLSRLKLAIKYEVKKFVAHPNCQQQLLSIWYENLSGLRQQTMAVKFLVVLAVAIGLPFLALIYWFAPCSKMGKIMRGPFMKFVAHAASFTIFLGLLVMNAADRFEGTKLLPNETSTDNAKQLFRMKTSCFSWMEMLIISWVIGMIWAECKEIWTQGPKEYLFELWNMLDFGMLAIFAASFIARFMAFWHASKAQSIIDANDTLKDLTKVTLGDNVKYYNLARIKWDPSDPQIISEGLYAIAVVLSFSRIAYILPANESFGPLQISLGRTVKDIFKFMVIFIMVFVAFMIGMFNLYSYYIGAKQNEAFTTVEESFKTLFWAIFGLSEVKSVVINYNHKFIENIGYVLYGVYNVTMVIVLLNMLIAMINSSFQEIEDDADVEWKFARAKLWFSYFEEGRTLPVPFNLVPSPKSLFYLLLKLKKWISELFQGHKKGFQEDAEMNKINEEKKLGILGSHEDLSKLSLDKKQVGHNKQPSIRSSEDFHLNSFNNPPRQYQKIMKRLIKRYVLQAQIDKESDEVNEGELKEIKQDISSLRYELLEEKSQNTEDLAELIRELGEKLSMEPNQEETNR", "test": "Fura-2 calcium imaging in HEK-TRPC6 cells; also whole-cell patch clamp of hTRPC6 in HEK293", "set-up": "human TRPC6 expressed in HEK cells"}, "TRPC6 [2]": {"target": "T1, TRPC6", "test": "Fura-2 calcium imaging in HEK-TRPC6 cells, inhibition of GSK-2934A-induced signal", "set-up": "human TRPC6 stably expressed in HEK cells"}, "Orai1": {"target": "T2, Orai1 (Homo sapiens, UniProt Q96D31)", "T2 construct": "Orai1/STIM1 over-expressed in HEK cells; with STIM1", "T2 sequence (Q96D31 whole entry)": "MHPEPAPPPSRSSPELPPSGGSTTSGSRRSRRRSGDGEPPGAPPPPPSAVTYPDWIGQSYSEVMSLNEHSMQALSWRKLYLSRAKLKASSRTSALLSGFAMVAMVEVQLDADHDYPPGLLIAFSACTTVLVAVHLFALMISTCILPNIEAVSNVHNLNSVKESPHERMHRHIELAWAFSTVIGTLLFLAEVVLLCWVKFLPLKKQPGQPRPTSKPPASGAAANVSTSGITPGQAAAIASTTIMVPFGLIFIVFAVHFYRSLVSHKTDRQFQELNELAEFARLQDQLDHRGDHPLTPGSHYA", "T2 sequence (Q13586 23-685 partner)": "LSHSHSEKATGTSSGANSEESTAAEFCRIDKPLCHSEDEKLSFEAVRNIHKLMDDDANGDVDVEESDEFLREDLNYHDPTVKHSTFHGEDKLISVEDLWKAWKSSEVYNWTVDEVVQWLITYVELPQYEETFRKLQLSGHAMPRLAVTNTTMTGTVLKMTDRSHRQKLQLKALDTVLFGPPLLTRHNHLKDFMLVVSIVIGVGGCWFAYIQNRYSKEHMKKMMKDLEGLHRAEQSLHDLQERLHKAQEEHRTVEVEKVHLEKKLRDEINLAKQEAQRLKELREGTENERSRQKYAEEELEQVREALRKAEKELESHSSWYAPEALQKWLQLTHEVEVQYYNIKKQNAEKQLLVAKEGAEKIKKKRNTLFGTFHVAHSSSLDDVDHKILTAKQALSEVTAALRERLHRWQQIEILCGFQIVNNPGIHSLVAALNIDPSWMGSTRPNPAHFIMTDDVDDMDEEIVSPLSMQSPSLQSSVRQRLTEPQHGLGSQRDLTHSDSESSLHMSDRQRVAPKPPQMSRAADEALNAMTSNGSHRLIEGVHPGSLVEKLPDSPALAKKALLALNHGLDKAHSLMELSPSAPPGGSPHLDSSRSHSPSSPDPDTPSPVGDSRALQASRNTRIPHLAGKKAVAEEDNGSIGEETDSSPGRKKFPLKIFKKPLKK", "test": "ICRAC current inhibition in HEK cells over-expressing Orai1/STIM1 (data not shown)", "details": "HEK293; read-out: % inhibition at 10 μmol/L"}}, "data": [{"smiles": "O=C(c1cc2c(s1)CCCCC2)N1CCC(n2c(=O)[nH]c3ccccc32)CC1", "note": "[GSK-2934A, GSK1702934A]", "values": [{"measurement": "EC50", "setting": "TRPC6 [1]", "value": 6.6, "unit": "pEC50"}]}, {"smiles": "Cc1sc(Nc2ccc(Cl)cc2F)nc1C(=O)N1CCC[C@H](C)[C@@H]1C", "note": "[GSK-3503A, GSK2833503A]", "values": [{"measurement": "IC50", "setting": "TRPC6 [2]", "value": 7.8, "unit": "pIC50"}]}, {"smiles": "COc1ccc(OC)c(-c2ccc(NC(=O)c3ccncc3F)cc2)c1", "note": "[Synta66]", "values": [{"measurement": "inhibition at 10 µM", "setting": "Orai1", "value": "94 ± 3", "unit": "%"}]}]}
